Measurements published in patent US9302999B2, “Substituted triazoles as herbicides” (E. I. DU PONT DE NEMOURS AND COMPANY, priority 2012, dated 2016).

Legend:
Format in all cases: in vivo
[1] = tested on: Russian thistle (Salsola kali); assay: Test C pre-/postemergence: Russian thistle; conditions: Preemergence
From the text: Seeds of plant species selected from blackgrass (Alopecurus myosuroides), bromegrass, downy (downy bromegrass, Bromus tectorum), foxtail, green (green foxtail, Setaria viridis), ryegrass, Italian (Italian ryegrass, Lolium multiflorum), winter wheat (Triticum aestivum), wild oat (Avena fatua), galium (catchweed bedstraw, Galium aparine), bermudagrass (Cynodon dactylon), surinam grass (Brachiaria decumbens), cocklebur (common cocklebur, Xanthium strumarium), corn (Zea mays), large crabgrass (Digitaria sanguinalis), woolly cupgrass (Eriochloa villosa), foxtail, giant (giant foxtail, Setaria faberii), goosegrass (Eleusine indica), johnsongrass (Sorghum halepense), kochia (Kochia scoparia), lambsquarters (Chenopodium album), morningglory (Ipomoea coccinea), nightshade (eastern black nightshade, Solanum ptycanthum), nutsedge, yellow (yellow nutsedge, Cyperus esculentus), pigweed (Amaranthus retroflexus), ragweed (common ragweed, Ambrosia elation), soybean (Glycine max), common (oilseed) sunflower (Helianthus annuus), Russian thistle (Salsola kali) and velvetleaf (Abutilon theophrasti) were planted into a blend of loam soil and sand and treated preemergence with test chemicals formulated in a non-phytotoxic solvent mixture which included a surfactant.
At the same time, plants selected from these crop and weed species and also barley (winter barley, Hordeum vulgare), canarygrass (Phalaris minor), chickweed (common chickweed, Stellaria media) windgrass (Apera spica-venti) and deadnettle (henbit deadnettle, Lamium amplexicaule) were planted in pots containing Redi-Earth® planting medium (Scotts Company, 14111 Scottslawn Road, Marysville, Ohio 43041) comprising spaghnum peat moss, vermiculite, wetting agent and starter nutrients and treated with postemergence applications of test chemicals formulated in the same manner. Plants ranged in height from 2 to 18 cm (1- to 4-leaf stage) for postemergence treatments.
(§1) Treated plants and controls were maintained in a greenhouse for 13 to 15 days, after which time all species were compared to controls and visually evaluated. Plant response ratings, summarized in Table C, are based on a scale of 0 to 100 where 0 is no effect and 100 is complete control. A dash (-) response means no test result.

[2] = tested on: wheat, spring (spring wheat, Triticum aestivum); assay: Test D pre-/postemergence: wheat, spring
From the text: Seeds of plant species selected from bluegrass (annual bluegrass, Poa annua), blackgrass (Alopecurus myosuroides), canarygrass (Phalaris minor), chickweed (common chickweed, Stellaria media), galium (catchweed bedstraw, Galium aparine), bromegrass, downy (downy bromegrass, Bromus tectorum), field poppy (Papaver rhoeas), field violet (Viola arvensis), foxtail, green (green foxtail, Setaria viridis), deadnettle (henbit deadnettle, Lamium amplexicaule), ryegrass, Italian (Italian ryegrass, Lolium multiflorum), kochia (Kochia scoparia), lambsquarters (Chenopodium album), oilseed rape (Brassica napus), pigweed (Amaranthus retroflexus), Russian thistle (Salsola iberica), chamomile (scentless chamomile, Matricaria inodora), speedwell (bird's-eye speedwell, Veronica persica), barley, spring (spring barley, Hordeum vulgare), wheat, spring (spring wheat, Triticum aestivum), buckwheat, wild (wild buckwheat, Polygonum convolvulus), mustard, wild (wild mustard, Sinapis arvensis), oat, wild (wild oat, Avena fatua), radish, wild (wild radish, Raphanus raphanistrum), windgrass (Apera spica-venti), barley, winter (winter barley, Hordeum vulgare), and wheat, winter (winter wheat, Triticum aestivum) were planted into a silt loam soil and treated preemergence with test chemicals formulated in a non-phytotoxic solvent mixture which included a surfactant. At the same time, these same crop and weed species were planted in pots containing the planting medium comprising spaghnum peat moss, vermiculite, wetting agent and starter nutrients and treated with postemergence applications of the test chemicals formulated in the same manner. Plants ranged in height from 2 to 18 cm (1- to 4-leaf stage).
as §1, with “controlled growth environment” for “greenhouse”, “14” for “13”, “21 days” for “15 days,”, “D,” for “C,”

[3] = tested on: sandbur (southern sandbur, Cenchrus echinatus); assay: Test F pre-/postemergence: sandbur; conditions: Postemergence, scale 0 to 100
From the text: (§2) Seeds of plant species selected from corn (Zea mays), soybean (Glycine max), velvetleaf (Abutilon theophrasti), lambsquarters (Chenopodium album), poinsettia, wild (wild poinsettia, Euphorbia heterophylla), pigweed, palmer (palmer pigweed, Amaranthus palmeri), waterhemp (common waterhemp, Amaranthus rudis), surinam grass (Brachiaria decumbens), crabgrass, Brazil (Brazilian crabgrass, Digitaria horizontalis), panicum, fall (fall panicum Panicum dichotomiflorum), crabgrass, large (large crabgrass, Digitaria sanguinalis), foxtail, giant (giant foxtail, Setaria faberii), foxtail, green (green foxtail Setaria viridis), goosegrass (Eleusine indica), ragweed (common ragweed, Ambrosia elatior), barnyardgrass (Echinochloa crus-galli), sandbur (southern sandbur, Cenchrus echinatus), arrowleaf sida (Sida rhombifolia), ryegrass, Italian (Italian ryegrass, Lolium multiflorum), dayflower, VA (Virginia (VA) dayflower, Commelina virginica), field bindweed (Convolvulus arvensis), cocklebur (common cocklebur, Xanthium strumarium), morningglory (Ipomoea coccinea), nightshade (eastern black nightshade, Solanum ptycanthum), kochia (Kochia scoparia), nutsedge, yellow (yellow nutsedge, Cyperus esculentus), johnsongrass (Sorghum halepense), smartweed (ladysthumb smartweed, Polygonum persicaria), and beggarticks (hairy beggarticks, Bidens pilosa), were planted into a silt loam soil and treated preemergence with test chemicals formulated in a non-phytotoxic solvent mixture which included a surfactant. At the same time, plants selected from these crop and weed species and also pigweed (Amaranthus retroflexus), waterhemp_RES1 (ALS/Triazine resistant common waterhemp, Amaranthus rudis) and waterhemp_RES2 (ALS/HPPD resistant common waterhemp, Amaranthus rudis) were planted in pots containing a planting medium comprising spaghnum peat moss, vermiculite, wetting agent and starter nutrients treated with postemergence applications of some of the test chemicals formulated in the same manner. Plants ranged in height from 2 to 18 cm for postemergence treatments (1- to 4-leaf stage).
as §1, with “14” for “13”, “21” for “15”, “E,” for “C,”

[4] = tested on: field bindweed (Convolvulus arvensis); assay: Test F pre-/postemergence: field bindweed; conditions: Postemergence, scale 0 to 100
From the text: as §2
as §1, with “14” for “13”, “21” for “15”, “E,” for “C,”

[5] = 31 g ai/ha, scale of 0 to 100, 0 is no effect, 100 is complete control
[6] = 62 g ai/ha, scale of 0 to 100, 0 is no effect, 100 is complete control
[7] = 125 g ai/ha, scale 0 to 100, 0 no effect, 100 complete control
[8] = 250 g ai/ha, scale 0 to 100, 0 no effect, 100 complete control
[9] = Postemergence, 31 g ai/ha, scale 0 to 100 (0 no effect, 100 complete control)
[10] = Postemergence, 62 g ai/ha, scale 0 to 100 (0 no effect, 100 complete control)
[11] = Postemergence, 125 g ai/ha, scale 0 to 100, 0 no effect, 100 complete control
[12] = Postemergence, 250 g ai/ha, scale 0 to 100 (0 no effect, 100 complete control)
[13] = Preemergence, 31 g ai/ha, scale 0 to 100, 0 no effect, 100 complete control
[14] = Preemergence, 62 g ai/ha, scale 0 to 100
[15] = Preemergence, 125 g ai/ha, scale 0 to 100
[16] = Preemergence, 250 g ai/ha, scale 0 to 100
[17] = Postemergence, 16 g ai/ha, scale 0 to 100
[18] = Preemergence, 16 g ai/ha, scale 0 to 100, 0 no effect, 100 complete control

Compound	Plant response rating, Russian Thistle [1, 5]	Plant response rating, Russian Thistle [1, 6]	Plant response rating, Russian Thistle [1, 7]	Plant response rating, Russian Thistle [1, 8]	Plant response rating: Wheat, Spring [2, 9]	Plant response rating: Wheat, Spring [2, 10]	Plant response rating: Wheat, Spring [2, 11]	Plant response rating: Wheat, Spring [2, 12]	Plant response rating, Wheat, Spring [2, 13]	Plant response rating, Wheat, Spring [2, 14]	Plant response rating, Wheat, Spring [2, 15]	Plant response rating, Wheat, Spring [2, 16]	Plant response rating, Wheat, Spring [2, 17]	other results
FC(F)(F)COc1nn(-c2ccc(C(F)(F)F)cc2)nc1Cc1ccnc(C(F)(F)F)c1 [Compound 14, 4-[[5-(2,2,2-trifluoroethoxy)-2-[4-(trifluoromethyl)phenyl]-2H-1,2,3-triazol-4-yl]methyl]-2-(trifluoromethyl)pyridine]	10	90	95	95	15	20	35	40	0	0	5	15	–	–
COc1nn(-c2ccc(C(F)(F)F)cc2)nc1Cc1ccnc(C(F)(F)F)c1 [Compound 15, 4-[[5-methoxy-2-[4-(trifluoromethyl)phenyl]-2H-1,2,3-triazol-4-yl]methyl]-2-(trifluoromethyl)pyridine]	50	95	100	–	25	30	40	50	0	0	0	5	20	Plant response rating, Russian Thistle ([1]; 16 g ai/ha, scale 0 (no effect) to 100 (complete control)): 5
Cc1nn(-c2ccc(C(F)(F)F)cn2)nc1Oc1ccnc(C(F)(F)F)c1 [Compound 23]	–	–	–	–	5	10	10	15	–	–	–	–	0	–
Fc1ccc(-n2nc(Cc3ccnc(C(F)(F)F)c3)c(OC(F)F)n2)cc1 [Compound 25]	0	–	90	90	–	–	–	–	–	–	–	–	–	–
FC(F)Oc1nn(-c2ccc(C(F)(F)F)cc2)nc1Cc1ccnc(C(F)(F)F)c1 [Compound 26]	–	80	95	95	–	–	–	–	–	–	–	–	–	–
Cc1nn(-c2ccc(C(F)(F)F)cn2)nc1Cc1cccc(C(F)(F)F)c1 [Compound 106]	0	5	30	100	5	5	10	20	0	0	0	0	0	–
Cc1nn(-c2ccc(C(F)(F)F)cc2)nc1Oc1ccnc(C(F)(F)F)c1 [Compound 120]	0	–	85	100	10	10	20	25	0	5	10	20	10	Plant response rating, Wheat, Spring [2, 18]: 0
COc1nn(-c2ccc(C(F)(F)F)cc2)nc1Cc1ccnc(C(F)F)c1 [Compound 138]	85	90	90	100	5	10	25	35	–	–	–	–	5	–
Cc1nn(-c2ccnc(Cl)c2)nc1Cc1ccnc(C(F)(F)F)c1 [Compound 141]	–	–	–	–	–	–	–	–	–	–	–	–	–	Plant response rating, Sandbur ([3]; 8 g ai/ha): 10; Plant response rating, Sandbur ([3]; 16 g ai/ha): 10; Plant response rating, Sandbur ([3]; 31 g ai/ha): 20; Plant response rating, Sandbur ([3]; 62 g ai/ha): 30; Plant response rating, Sandbur ([3]; 125 g ai/ha): 35; Plant response rating, Field Bindweed ([4]; 8 g ai/ha): 50; Plant response rating, Field Bindweed ([4]; 16 g ai/ha): 60; Plant response rating, Field Bindweed ([4]; 31 g ai/ha): 70; Plant response rating, Field Bindweed ([4]; 62 g ai/ha): 80; Plant response rating, Field Bindweed ([4]; 125 g ai/ha): 85
Cc1nn(-c2ccc(F)c(C(F)(F)F)c2)nc1Cc1ccnc(C(F)(F)F)c1 [Compound 156]	–	–	–	–	15	20	25	–	0	0	5	–	10	Plant response rating, Wheat, Spring [2, 18]: 0
